Measurements from paper PMC4634243 (Influenza and Other Respiratory Viruses, 2012).

Columns and labels:
[1] = tested on: H5N1‐HIV pseudoviruses (HA of A/Qinghai/59/2005(H5N1), NA of A/Thailand/Kan353/2004); assay type: cell-based, H5N1 pseudovirus in MDCK cells
purified N1‐type NA = purified N1‐type NA (Influenza A virus, UniProt P03468); assay type: biochemical
[2] = tested on: nuclear‐to‐cytoplasmic export of the RNP complex (NP); assay type: cell-based, 178 H5N1 HPAIV in MDCK cells
[3] = tested on: RNP combinations of PB2, PB1, PA, and NP from influenza virus strain 178; assay type: cell-based, influenza virus strain 178 (H5N1), 293T cells
[4] = tested on: H5N1 influenza virus strain 178; assay type: cell-based, H5N1 influenza virus strain 178 in MDCK cells; details: 12–72 h
[5] = tested on: influenza virus type A, A/Chicken/GuangDong/178/2004 (H5N1, 178)
[6] = tested on: H5N1 influenza virus strain 178; test: organism not typed; assay type: cell-based, H5N1 influenza virus strain 178 in MDCK cells

Chain of purified N1‐type NA (P03468 whole entry): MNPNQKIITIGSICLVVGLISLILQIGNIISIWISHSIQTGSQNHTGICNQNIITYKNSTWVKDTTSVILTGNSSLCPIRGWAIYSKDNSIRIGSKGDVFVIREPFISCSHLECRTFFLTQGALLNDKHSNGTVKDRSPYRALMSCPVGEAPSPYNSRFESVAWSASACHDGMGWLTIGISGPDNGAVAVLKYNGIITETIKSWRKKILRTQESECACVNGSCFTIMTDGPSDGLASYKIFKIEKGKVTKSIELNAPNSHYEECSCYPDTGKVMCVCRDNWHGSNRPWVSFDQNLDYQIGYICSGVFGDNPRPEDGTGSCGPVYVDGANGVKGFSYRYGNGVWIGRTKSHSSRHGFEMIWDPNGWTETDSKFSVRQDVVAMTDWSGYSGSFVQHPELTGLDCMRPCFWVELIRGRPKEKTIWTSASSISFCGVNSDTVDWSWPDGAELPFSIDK

O[C@H]1[C@H]2c3cc4c(cc3CN3CCC(=C[C@@H]1O)[C@H]23)OCO4 [AA1, lycorine]
prevention of binding and internalizing of H5N1 pseudovirions into MDCK cells [1]: neither AA1 nor AA3 could prevent | inhibitory activity on the N1‐type neuraminidase (purified N1‐type NA): did not exhibit significant inhibitory activity | location of NP protein at 48 h p.i. (multi‐round replication) [2]: NP protein was exported to cytoplasm | migration of the RNP complex from the nucleus to cytoplasm, early and middle stages of the replication cycle (0–6 h) [2]: affected migration of the RNP complex from the nucleus to cytoplasm | time for which antiviral activity (block in vRNP nuclear export) was retained [2]: up to 24 h | luciferase activities (RNP activity) compared with no treatment [3]: slightly higher luciferase activities | HA titer, cultured with DMEM‐containing compounds (protocol 4, 5, 7) [4]: no HA titer was detected | SI (CC50/EC50) [5]: >45 | inhibitory activity when added at time intervals 5 min–1 h, 15 min–1 h, 30 min–1 h, 1–2 h, 2–4 h, or 4–8 h [6]: not significant | inhibitory effect against virus, time of addition [6]: observed after a single round of replication (12 h p.i.) | inhibition at 52 µM ([6]; read-out: virus inhibited (HA titer)): ~50% | CC50 (MDCK cells): 20·9 ± 0·07 μM

O=c1cc(N2CCOCC2)oc2c(-c3ccccc3)cccc12 [LY294002, reference compound]
distribution of NP protein at 12, 24, and 48 h p.i. [2]: the protein was still in the nucleus
